# Assay results as given in patent US12173088B2, “Anti-microbial peptides” (priority 2018, dated 2024).
# Where two headings read alike, the source gives them in different places. Peptide text beside a SMILES is read from it.
# Experiments:
# S. aureus USA300 = experiment: microbe, parasite or virus in culture; assay type: cell-based, Staphylococcus aureus
# Procedure, shortened: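 Broth microdilution: log-phase cultures in tryptic soy broth diluted to OD600 0.001, exposed to two-fold diluted peptides at 37° C overnight, growth read at 630 nm. Medium effects on S. aureus USA300 tested with up to 200 mM NaCl, 2 mM CaCl2, 5-10% human serum, mouse plasma, fluids or tissue homogenate supernatants.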
# P. aeruginosa PAO1 = assay type: cell-based, Pseudomonas aeruginosa
# Procedure, shortened: (§1)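 Broth microdilution in tryptic soy broth: log-phase cultures (OD600 ≈0.5) diluted to OD600 0.001, given two-fold peptide dilutions, incubated overnight at 37° C. Growth read at 630 nm.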
# E. coli ATCC 25922 = assay type: cell-based, Escherichia coli
# Procedure, shortened: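 Peptides, serially diluted two-fold, were incubated overnight at 37 °C with E. coli ATCC 25922 from log-phase cultures adjusted to OD600 0.001. Turbidity at 630 nm served as the read-out in this broth microdilution format.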
# K. pneumoniae ATCC 13883 = assay type: cell-based, Klebsiella pneumoniae
# Procedure, shortened: as §1
# [1] = system: human red blood cells (hRBCs); experiment: Hemolytic assay; assay type: cell-based
# Procedure, shortened: (§2)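 HL50 marks the peptide level lysing half of a 2% (v/v) suspension of washed human erythrocytes after 1 h at 37 °C. Released hemoglobin measured at 545 nm, scaled between PBS (0%) and Triton X-100 (2% or 1%; 100%). Selectivity index computed as HL50 over MIC.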
# Hemolytic assay = assay type: cell-based, human; conditions: human, human red blood cells, 2% (v/v)
# Procedure, shortened: as §2
# K. pneumoniae E406-17 = experiment: microbe, parasite or virus in culture; assay type: cell-based, Klebsiella pneumoniae; conditions: for MIC: read-out: MIC K. pneumoniae E406-17
# Method: (§3) The antibacterial activity of peptides was evaluated using a standard broth microdilution protocol with minor modifications as described (Mishra, et al. (2012) J. Am. Chem. Soc., 134:12426-12429). In brief, logarithmic phase bacterial cultures (i.e., optical density at 600 nm≈0.5) were diluted to OD600 0.001 and partitioned into a 96-well polystyrene microplate at 90 μL per well. After treatment with 10 μL of peptide solutions two fold diluted to various concentrations, microplates were incubated at 37° C. overnight and read on a ChroMate® 4300 Microplate Reader at 630 nm (GMI, Ramsey, MN). […] To study the influence of medium conditions on the antimicrobial activity of peptides against S. aureus USA300, up to 200 mM sodium chloride (NaCl), 2 mM of calcium chloride, 5-10% of human serum, mouse plasma, fluid, or supernatants of tissue homogenates were included into the assays.
# (§4) The bacterial strains used include the Gram-positive bacteria methicillin-resistant Staphylococcus aureus USA300, Enterococcus faecium V286-17 (VRE), S. aureus M838-17 (MRSA) and Gram-negative bacteria E. coli E423-17, E416-7 (ampC), P. aeruginosa E411-17, PA01, K. pneumoniae E406-17, ATCC13883, and A. baumannii B26-16. Bacteria were cultivated in tryptic soy broth (TSB) from BD Bioscience.
# (§5) The antibacterial activity of peptides was evaluated using a standard broth microdilution protocol with minor modifications (Mishra, et al. (2017) Acta Biomater., 49:316-328). In brief, logarithmic phase bacterial cultures (i.e., optical density at 600 nm≈0.5) were diluted to 0.001 OD and aliquoted 90 μL per well into a 96-well polystyrene microplate. Added 10 μL peptides per well with various concentrations, plates were incubated at 37° C., overnight. Post incubation the plates are read at 630 nm using a ChroMate® Microplate Reader (GMI). […] To study the influence of medium conditions on the antimicrobial activity of peptides against S. aureus USA300 at different pHs (6.8, 7.2, and 8.0), 150 mM sodium chloride (NaCl), 5-10% of human serum, mouse plasma, and peritoneal fluid were included into the assays.
# E. faecium V286-17 (VRE) = experiment: microbe, parasite or virus in culture; assay type: cell-based, Enterococcus faecium; conditions: read-out: MIC E. faecium V286-17 (VRE)
# From the text: (§6) The bacterial strains used include the Gram-positive strains Staphylococcus aureus USA300 LAC, S. epidermidis 1457, and Bacillus subtilis 168, as well as the Gram-negative isolates Escherichia coli K12 and Acinetobacter baumannii B2367-12. Additional, drug resistance strains include Gram-positive Enterococcus faecium V286-17 (VRE) and S. aureus M838-17 (MRSA) and Gram-negative E. coli E423-17, E. coli E416-17 (ampC), and P. aeruginosa E411-17. Bacteria were cultivated in tryptic soy broth (TSB) (BD Bioscience, MD).
# as §3, §4, §5
# E. coli E423-17 = experiment: microbe, parasite or virus in culture; assay type: cell-based, Escherichia coli; conditions: read-out: MIC E. coli E423-17
# From the text: as §6, §3, §4, §5
# P. aeruginosa E411-17 = experiment: microbe, parasite or virus in culture; assay type: cell-based, Pseudomonas aeruginosa; conditions: for MIC: read-out: MIC P. aeruginosa E411-17
# From the text: as §6, §3, §4, §5
# [2] = system: Klebsiella pneumoniae clinical strains; experiment: microbe, parasite or virus in culture; conditions: Klebsiella pneumoniae
# Method: as §5
# A. baumannii B26-16 = experiment: microbe, parasite or virus in culture; assay type: cell-based, Acinetobacter baumannii; conditions: read-out: MIC A. baumannii B26-16
# Method: as §4, §5
# S. aureus M838-17 (MRSA) = experiment: microbe, parasite or virus in culture; assay type: cell-based, Staphylococcus aureus; conditions: M838-17
# Procedure, shortened: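 Peptides were serially diluted two-fold against bacteria grown in tryptic soy broth to log phase (OD600 ≈0.5), then seeded at OD600 0.001. Plates were held overnight at 37° C and read at 630 nm. USA300 was also tested at pH 6.8, 7.2 and 8.0, with 150 mM NaCl or 5-10% serum, plasma or peritoneal fluid.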
# [3] = Table 4, quantitated based on weight
compound,measurement,setting,value
"CC(C)C[C@H](NC(=O)[C@H](CC(C)C)NC(=O)[C@H](CCCCN)NC(=O)CNC(=O)[C@H](CC(C)C)NC(=O)[C@H](CC(C)C)NC(=O)[C@H](CO)NC(=O)[C@H](CC(C)C)NC(=O)[C@H](CC(C)C)NC(=O)[C@H](CO)NC(=O)[C@H](CC(C)C)NC(=O)[C@H](CC(C)C)NC(=O)CN)C(N)=O [DFTamP1, GLLSLLSLLGKLL] (H-GLLSLLSLLGKLL-NH2; N-terminus assumed)",MIC,S. aureus USA300; 1 mM Ca2+,0.78 µM
same,MIC,S. aureus USA300; 2 mM Ca2+,0.78 to 1.56 µM
same,MIC,S. aureus USA300; 50 mM NaCl,0.78 µM
same,MIC,S. aureus USA300; 100 mM NaCl,0.78 µM
same,MIC,S. aureus USA300; 200 mM NaCl,0.78 µM
same,MIC,"S. aureus USA300; Human serum (5%), Table 5",12.5 µM
same,MIC,"S. aureus USA300; Murine plasma (5%), Table 5",6.2^ 2 μM
same,MIC,"S. aureus USA300; NaCl (150 mM), Table 5",3.1 to 6.2 µM
same,MIC,"S. aureus USA300; No salts added, Table 6, by UV",0.78 µM
same,MIC S. aureus USA 300,"S. aureus USA300; Table 2, peptides amidated, quantified by UV",0.78 µM
same,MIC S. aureus USA 300,"S. aureus USA300; Table 3, quantified by UV",0.78 µM
same,MIC SA (S. aureus USA300),S. aureus USA300; [3],3.1 µM
same,MIC,"S. aureus USA300; pH 6.8, Table 5, by weight",6.2 µM
same,MIC,"S. aureus USA300; pH 7.4, Table 5",3.1 µM
same,MIC,"S. aureus USA300; pH 8.0, Table 5",3.1 µM
same,MIC P. aeruginosa PAO1,"P. aeruginosa PAO1; Table 2, quantified by UV",>25 µM
same,MIC PA (P. aeruginosa PAO1),P. aeruginosa PAO1; [3],>25 µM
same,MIC E. coli ATCC 25922,"E. coli ATCC 25922; Table 2, quantified by UV",>25 µM
same,MIC EC (E. coli ATCC 25922),E. coli ATCC 25922; [3],>25 µM
same,MIC K. pneumoniae,"K. pneumoniae ATCC 13883; Table 2, quantified by UV",>25 µM
same,MIC K. pneumonia ATCC 13883,"K. pneumoniae ATCC 13883; Table 3, quantified by UV",>25 µM
same,HL50,"[1]; Table 2, lysis of 50% hRBCs (2% v/v)",<3.1 µM
same,HL50,"[1]; Table 3, hRBCs 2% v/v",<3.1 µM
same,HC50 at 1 h,"Hemolytic assay; Table 4, quantitated based on weight, read-out: HL50, peptide concentration for 50% hemolysis",10 µM
"NC[C@H]1O[C@H](O[C@H]2[C@H](O)[C@@H](O[C@H]3O[C@H](CO)[C@@H](O)[C@H](N)[C@H]3O)[C@H](N)C[C@@H]2N)[C@H](N)C[C@@H]1O [Tobramycin, reference compound]",MIC,"S. aureus USA300; Staphylococcus aureus, MRSA / USA300, Table 14, read-out: MIC S. aureus USA300 (MRSA)",4 µM
same,MIC,"K. pneumoniae E406-17; Klebsiella pneumoniae, E40617, Table 14",> 8 µM
same,MIC,"E. faecium V286-17 (VRE); Enterococcus faecium, VRE, Table 14",> 8 µM
same,MIC,"E. coli E423-17; Escherichia coli, E42317, Table 14",8 µM
same,MIC,"P. aeruginosa E411-17; Pseudomonas aeruginosa, E41117, Table 14",2 µM
same,MIC,[2]; strain KP-231-18,64 µM
same,MIC,[2]; strain KP-232-18,> 64 µM
same,MIC,[2]; strain KP-245-18,4 to 8 µM
same,MIC,[2]; strain KP-249-18,8 µM
same,MIC,[2]; strain KP-253-18,8 µM
same,MIC,[2]; strain KP-256-18,> 64 µM
same,MIC,[2]; strain KP-257-18,> 64 µM
same,MIC,[2]; strain KP-262-18,4 µM
same,MIC,[2]; strain KP-270-18,16 µM
same,MIC,[2]; strain KP-B42-15,8 µM
same,MIC,[2]; strain KP-B53-15,4 µM
same,MIC,[2]; strain KP-B73-15,4 µM
same,MIC,[2]; strain KP-B77-15,4 µM
same,MIC,[2]; strain KP-B1725-18,8 µM
same,MIC,"A. baumannii B26-16; Acinetobacter baumannii, B2616, Table 14",4 µM
"CC[C@H](C)[C@H](NC(=O)[C@H](CCCCN)NC(=O)[C@@H](N)CCCNC(=N)N)C(=O)N[C@@H](Cc1c[nH]c2ccccc12)C(=O)N[C@@H](Cc1c[nH]c2ccccc12)C(=O)N[C@@H](Cc1c[nH]c2ccccc12)C(=O)N[C@@H](Cc1c[nH]c2ccccc12)C(=O)N[C@@H](CC(C)C)C(N)=O [WW295, RKIWWWWL] (H-RKIWWWWL-NH2; N-terminus and C-terminus assumed)",MIC S. aureus USA 300,S. aureus USA300; USA300,3.1 to 6.2 µM
same,MIC,"S. aureus USA300; USA300, read-out: MIC S. aureus USA300 (MRSA)",4 µM
same,MIC S. aureus M838-17,S. aureus M838-17 (MRSA),6.2 to 12.5 µM
same,MIC K. pneumonia 406-17,K. pneumoniae E406-17; E406-17,12.5 µM
same,MIC,K. pneumoniae E406-17; E406-17,16 µM
same,MIC,E. faecium V286-17 (VRE); V286-17 (VRE),4 µM
same,MIC,E. coli E423-17; E423-17,8 µM
same,MIC P. aeruginosa 411-17,P. aeruginosa E411-17; E411-17,>50 µM
same,MIC,P. aeruginosa E411-17; E411-17,32 µM
same,MIC E. coli ATCC 25922,E. coli ATCC 25922; ATCC 25922,6.2 µM
same,MIC K. pneumoniae ATCC 13883,K. pneumoniae ATCC 13883; ATCC 13883,3.1 to 6.2 µM
same,HC50 at 1 h,Hemolytic assay,57 µM
same,MIC,A. baumannii B26-16; B26-16,8 µM
